Measurements reported in article PMC7821884, “BRAF inhibition protects against hearing loss in mice” (Science Advances, 2020).

Columns and labels:
[1] = test system: Tg(brn3c:GFP) zebrafish larvae neuromast HCs; test: Zebrafish lateral line neuromast hair cell loss after cisplatin; format: in vivo; settings: 1 hour pretreatment, 6 hours 400 μM cisplatin; dabrafenib 100 nM
Excerpt: Lateral line neuromasts of zebrafish are a well-established model for the study of drug protection from cisplatin or aminoglycoside toxicity because their HCs are considered homologous to mammalian HCs and readily accessible to compounds in vivo ([47]–[49]). As in our previous studies, MI1 (medial neuromast 1) and O1-2 (otic line) neuromasts were examined in Tg(brn3c:GFP) zebrafish larvae 5 days after fertilization ([50], [51]). […] Green fluorescent protein (GFP) (brn3c) and otoferlin staining were used to identify neuromast HCs. In fig.
Zebrafish (D. rerio) experimental larvae of either sex were obtained by pair mating of adult fish maintained at Boys Town National Research Hospital. We used zebrafish line Tg(brn3c:GFP) that expresses a membrane-bound GFP in HCs. Fish were maintained at 28.5°C in E3 media [5 mM NaCl, 0.17 mM KCl, 0.33 mM CaCl2, and 0.33 MgSO4 (pH 7.2)] at a density of 50 embryos/larvae per […] petri dish. Experimental animals were used at 5 days post-fertilization and cryo-anesthetized after treatment and before fixation. Average HC counts in our studies were obtained from the following three neuromasts: MI1 (medial neuromast 1) and O1 and O2 (otic line).

P42 FVB mice [2] = test: Noise-induced hearing loss in adult mice (ABR, DPOAE, Ctbp2 puncta, pERK); format: in vivo, mouse
Procedure: Noise injury cannot always be predicted, and pretreatment is often not an option.
(§1) Compounds were dissolved in a mixture of 10% DMSO, 5% Tween 80 (P1754, Sigma-Aldrich), 40% PEG-E-300 (91462-1KG, Sigma-Aldrich), and 45% 0.9% saline.
(§2) ABR in mice was measured for left ears as described previously with minor modifications ([13], [34]). In brief, ABR waveforms were recorded in a sound booth (Industrial Acoustic Company) by using subdermal needles positioned in the skull, below the pinna, and at the base of the tail, and the responses were fed into a low-impedance Medusa digital biological amplifier system (RA4L; TDT; 20-dB gain). At each frequency, the stimulus intensity was reduced from 90 to 0 dB in 10-dB steps to determine the threshold decibel SPL when the electrical response was just above the noise floor. ABR waveforms were averaged in response to 500 tone bursts. The recorded signals were filtered by a band-pass filter from 300 Hz to 3 kHz. Pretreatment ABR recordings of adult FVB mice (aged 6 weeks) were acquired 1 week before all treatments, and posttreatment ABR measurements were recorded 21 days after cisplatin treatment or 14 days after noise exposure. ABR threshold was determined by the presence of any of three or more of the five waveform peaks. […] All thresholds and shifts were determined independently by two experimenters for each mouse. Individual ABR wave 1 amplitudes were measured as the difference between the positive peak and the following negative trough.
Mice were placed in individual cages in a custom-made acrylic chamber. The sound stimulus was produced by System RZ6 (TDT) equipment and amplified using a 75-A power amplifier (Crown). Sound was delivered to the acrylic chamber via a speaker horn (JBL). The SPL was calibrated with a 1/4-inch free-field microphone (PCB). Before experimental noise exposure, four quadrants of the cage inside the chamber were sampled with the 1/4-inch microphone to ensure that the SPL varied by <0.5 dB across the measured positions. Adult mice were then exposed to 2 hours of octave band noise (8 to 16 kHz) at 100 dB.
Organs of Corti were costained with anti-Ctbp2 and anti–myosin VI antibodies. Confocal imaging was performed using a Zeiss 700 scanning confocal microscope with a 63× objective. Visualization and projections were performed using ZEN 2009 or ZEN 2012 software (Zeiss). Ctbp2 puncta were visualized and counted on the reconstructed three-dimensional images by using the ZEN 2009 or ZEN 2012 three-dimensional construct function as previously reported ([54]). […] Images were acquired around 16-kHz cochlear regions, and each image included 12 to 18 IHCs that were quantified as total number of Ctbp2 puncta divided by total number of IHCs per image.

SK-N-AS = test: Tumor Cell Titer-Glo viability assay, SK-N-AS; format: cell-based, human; settings: SKN-AS, + 15 μM cisplatin, 48 hours
Excerpt: (§3) In clinical settings, cisplatin is used to treat several tumor types, including neuroblastoma and lung carcinoma. […] Medium-alone–, cisplatin-alone–, and dabrafenib-alone–treated cells were used as controls, and viability was reported as percent survival compared to medium alone (Fig. 4E).
(§4) Three human neuroblastoma cell lines IMR-32, SH-SY5Y, and, SK-N-AS, as well as three human lung carcinoma cell lines SHP-77 small cell, H1155 non–small cell, and A549 non–small cell, were used to determine the compounds’ effect on cisplatin’s tumor-killing efficacy ([77]–[83]). Cell lines were purchased from the American Type Culture Collection (ATCC), and cell culture was conducted according to ATCC specifications. Neuroblastoma cell lines IMR-32 and SH-SY5Y are maintained in Dulbecco’s modified Eagle’s medium (DMEM) 1× with glucose (4.5 g/liter), L-glutamine, and sodium pyruvate (10-013-CV, Corning) with 10% fetal bovine serum (FBS) (35011132, Corning) and ampicillin (50 μg/ml; A5354-10ML, Sigma-Aldrich) added. The SK-N-AS cell line is maintained in DMEM 1× with D-glucose (4.5 g/liter), L-glutamine, and 25 mM Hepes (12430-054, Gibco) with 10% FBS, 0.1 mM nonessential amino acids, and ampicillin (50 μg/ml) added. A549 cells are maintained in F-12K medium with L-glutamine (30-2004, ATCC) with 10% FBS and ampicillin (50 μg/ml) added. […]

[3] = test system: human neuroblastoma and lung carcinoma cell lines; test: Tumor Cell Titer-Glo viability assay, interference with cisplatin tumor killing (six cell lines); format: cell-based; settings: compound at 3× protective IC50 (dabrafenib 35 μM, AZD5438 […]) + 15 μM cisplatin (200 μM for A549), 48 hours
Excerpt: as §3, §4

P42 FVB mice [4] = test: Cisplatin-induced hearing loss in adult mice (ABR, OHC counts, pERK); settings: 75 mg/kg oral gavage, cisplatin 30 mg/kg i.p.
Procedure: As described in Fig. 4A, baseline auditory brainstem response (ABR) thresholds for P42 FVB mice were established 1 week before experimental procedures. […] Animals were allowed 21 days after cisplatin injection to recover, and final ABR thresholds were recorded.
Ten milligrams of cisplatin (479306, Sigma-Aldrich) powder was dissolved in 10 ml of sterile saline (0.9% NaCl) at 37°C for 40 to 60 min. Cisplatin was administered to FVB mice at 30 mg/kg via intraperitoneal injection. One day before cisplatin injection, mice received 1 ml of saline by subcutaneous injection. To ameliorate dehydration after cisplatin injection, 1 ml of warm saline was injected twice per day for at least 7 days or until body weight started to recover. The cages of cisplatin-treated mice were placed on the heating pad for at least 7 days or until body weight began to recover. Fresh mush food was daily given for at least 7 days.
as §1, §2
Cochleae from adult mice were prepared and examined as described previously ([85], [86]). All images were acquired with a confocal microscope (LSM 700 or 710, Zeiss). Samples were stained with phalloidin (A12379 or A12380, Invitrogen) or with antibodies for other markers. The following primary antibodies were used: anti–myosin VI (1:400; 25-6791; Proteus Bioscience), anti–myosin VIIa ([…];138-1-s, Developmental Studies Hybridoma Bank), anti-Tuj1 (1:250; 801201, BioLegend), anti-pERK (1:400; 9101S, Cell Signaling Technology), or anti-Ctbp2 (1:500; 612044, BD Transduction). Anti-rabbit Alexa Fluor 488 (1:400; A11034) and anti-mouse Alexa Fluor 647 (1:400; A31571) secondary antibodies were purchased from Invitrogen. ProLong gold antifade reagent with 4′,6-diamidino-2-phenylindole (P36941, Invitrogen) was used to counterstain nuclei.

Cc1ncc(-c2ccnc(Nc3ccc(S(C)(=O)=O)cc3)n2)n1C(C)C [AZD5438]
protection from cisplatin-induced neuromast HC loss [1]: confer protection
reduction of ABR threshold shifts, treatment after noise (P42 FVB mice [2]; 35 mg/kg twice daily oral gavage, post-noise): did not significantly reduce
protection against noise-induced hearing loss, pretreatment (P42 FVB mice [2]; 75 mg/kg oral gavage pretreatment): protected
interference with cisplatin killing ability (SK-N-AS): interfered with cisplatin killing ability
effect on cisplatin-induced tumor cell death [3]: did not interfere with or enhanced
protection against cisplatin-induced hearing loss, pretreatment (P42 FVB mice [4]): protected
